# Tests used:
# Test in all cases: relative viability (nuclei count vs DMSO), 5 days (fraction); higher = more cells survive
# Quizartinib + Phenformin = compound: CC(C)(C)c1cc(NC(=O)Nc2ccc(-c3cn4c(n3)sc3cc(OCCN5CCOCC5)ccc34)cc2)no1 [Quizartinib] + N=C(N)NC(=N)NCCc1ccccc1 [Phenformin] (partner 250 µM)
# Method in brief: (§1)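 Lung cancer cell lines in 1536-well plates were dosed by pin tool the day after seeding, either with one drug alone or with a fixed anchor-drug dose plus five library-drug doses (not always all listed) in √10 steps. After 5 days, cells were fixed and their nuclei stained in one step (final 0.05% Triton X-100, 1% formaldehyde, 1 ug/ml Hoechst), then counted on 4× images. Relative viability is the nuclei count in treated wells divided by that in vehicle wells. Values are medians of duplicate plates.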
# YM155 + Luminespib = compound: COCC[n+]1c2c(n(Cc3cnccn3)c1C)C(=O)c1ccccc1C2=O [YM155] + CCNC(=O)c1noc(-c2cc(C(C)C)c(O)cc2O)c1-c1ccc(CN2CCOCC2)cc1 [Luminespib] (partner 0.01 µM)
# Method in brief: as §1
# YM155 + Alpelisib = compound: COCC[n+]1c2c(n(Cc3cnccn3)c1C)C(=O)c1ccccc1C2=O [YM155] + Cc1nc(NC(=O)N2CCC[C@H]2C(N)=O)sc1-c1ccnc(C(C)(C)C(F)(F)F)c1 [Alpelisib] (partner 2 µM)
# Method in brief: as §1
# Quizartinib + Navitoclax = compound: CC(C)(C)c1cc(NC(=O)Nc2ccc(-c3cn4c(n3)sc3cc(OCCN5CCOCC5)ccc34)cc2)no1 [Quizartinib] + CC1(C)CCC(c2ccc(Cl)cc2)=C(CN2CCN(c3ccc(C(=O)NS(=O)(=O)c4ccc(N[C@H](CCN5CCOCC5)CSc5ccccc5)c(S(=O)(=O)C(F)(F)F)c4)cc3)CC2)C1 [Navitoclax] (partner 0.5 µM)
# Method in brief: as §1
Cell Line,relative viability (Quizartinib + Phenformin; first compound 0.001 µM),relative viability (Quizartinib + Phenformin; first compound 0.003162 µM),relative viability (Quizartinib + Phenformin; first compound 0.01 µM),relative viability (Quizartinib + Phenformin; first compound 0.03162 µM),relative viability (Quizartinib + Phenformin; first compound 0.1 µM),relative viability (YM155 + Luminespib; first compound 0.002 µM),relative viability (YM155 + Luminespib; first compound 0.006325 µM),relative viability (YM155 + Luminespib; first compound 0.02 µM),relative viability (YM155 + Luminespib; first compound 0.06325 µM),relative viability (YM155 + Alpelisib; first compound 0.002 µM),relative viability (YM155 + Alpelisib; first compound 0.006325 µM),relative viability (YM155 + Alpelisib; first compound 0.02 µM),relative viability (YM155 + Alpelisib; first compound 0.06325 µM),relative viability (Quizartinib + Navitoclax; first compound 0.001 µM),relative viability (Quizartinib + Navitoclax; first compound 0.003162 µM),relative viability (Quizartinib + Navitoclax; first compound 0.01 µM),relative viability (Quizartinib + Navitoclax; first compound 0.03162 µM),relative viability (Quizartinib + Navitoclax; first compound 0.1 µM)
NCI-H322M,0.541,0.827,0.837,0.547,0.744,0.814,0.949,0.944,0.759,0.762,0.878,0.666,0.732,1.1,1.08,1.19,1.37,1.23
NCI-H1975,0.395,0.406,0.476,0.399,0.404,0.283,0.253,0.209,0.156,0.627,0.665,0.581,0.549,1.02,1.1,1.19,1.06,1.1
NCI-H2023,0.347,0.378,0.372,–,0.312,0.771,0.678,0.682,0.349,0.589,0.671,0.594,0.156,0.981,0.937,1.04,0.744,1.04
COR-L 105,0.449,0.495,0.471,0.406,0.426,0.813,0.641,0.57,0.529,1.1,1.3,0.945,0.588,0.536,0.71,0.907,0.651,0.729
NCI-H23,–,0.724,0.771,0.727,0.841,0.209,0.206,0.187,0.142,0.707,0.669,0.71,0.271,–,0.852,0.915,0.773,0.472
NCI-H441,0.831,0.807,0.787,–,0.958,0.327,0.394,0.259,0.301,0.733,0.644,0.567,0.429,0.562,0.567,1.29,0.591,1.05

# From the supplement of paper PMC10307832
